From patent US20180344715A1, “WNT/BETA-CATENIN SIGNAL TRANSDUCTION INHIBITORS AND THEIR USE IN TREATMENT OR PREVENTION OF DISEASES AND CONDITIONS LINKED WITH SAID TRANSDUCTION” (BERGEN TEKNOLOGIOVERFORING AS, priority 2015, published 2018)

Key:
[1] = test system: HCT116 cells; assay: EdU label release assay, HCT116; type: cell-based; details: HCT116, 5 μM, 3 days
Protocol: Two days later, cells were seeded singly onto 12 mm glass coverslips in 24-well plates. One day after, EdU was detected using the Click-iT® Plus EdU Alexa Fluor 488 Imaging Kit (Life Technologies, C10637) according to the manufacturer's protocol. For double staining of EdU and other proteins, the EdU stained cells were further used for immunofluorescence staining as described above. Intensity of EdU staining in paired cells were quantified by Photoshop CS6 software, unequal EdU distribution was considered when paired cells had intensity ratio higher than 2.

[2] = biological target: T1, free GFP (Aequorea victoria, UniProt P42212); assay: MST ligand-binding assay, free GFP negative control; details: SW480 cell lysates, negative controls, two parallels
T1 construct: expressed in transfected cells; host or cells: SW480
Protocol: Ten million SW480 cells overexpressing GFP-tagged SHPRH or free GFP were lysed in 1 mL radioimmunoprecipitation assay (RIPA) buffer. Cell lysates were diluted in buffer A [50 mM Hepes buffer (pH 7.5), 5 mM DTT, 10 mM CaCl2), 50 mM NaCl, and 0.05% Tween-20] to a final concentration at which the fluorescent signals of the GFP proteins were similar and well above the detection limit of the Monolith NT.115 instrument (NanoTemper Technologies GmbH). Ten microliters of each receptor were mixed with 10 μL of the ligand at various concentrations from 100 μM to 3.05 nM. Specifically, the ligand (4 mM in 100% DMSO) was diluted 1:20 to a final concentration of 200 μM in buffer A (giving 5% DMSO). Ten microliters of the 200 μM ligand solution was further serially diluted 1:1 in 10 μL of buffer A supplemented with 5% DMSO to make a 16-sample dilution series down to 6.1 nM. Ten microliters of the cell lysate were added to 10 μL of each ligand solution. […] The fluorescence signal during the thermophoresis was monitored for 30 s, and the change in fluorescence was analyzed as thermophoresis with T-jump. The Kd was calculated by fitting a standard binding curve to the average of four independent dilution series.

[3] = test system: β-catenin; assay: Immunofluorescence staining of β-catenin in SW480 cells; type: cell-based; details: SW480, 5 μM, 24 hours
Protocol: Cells were seeded singly on 12 mm glass coverslips in 24-well plates. At the second day, cells were washed with PBS, fixed in 4% PBS buffered paraformaldehyde at room temperature for 20 minutes, permeabilized in 0.5% Triton X-100 for 10 minutes, blocked in 100 mM glycine for 5 minutes and with PBS wash between each step. After blocking with 0.5% BSA/PBS for 15 minutes, cells were incubated with primary antibodies (β-catenin, ab16051, 1:1000, Abcam; Ki67, ab16667, clone SP6, 1:50, Abcam) in 0.5% BSA/PBS for 1 hour at room temperature. The FITC-labelled secondary antibody (Southern Biotech, 4050-02) was added for 45 minutes at room temperature. Coverslips were mounted in SlowFade® Diamond Antifade Mountant with DAPI (Life Technologies, S36964) on glass slides. Images were captured using the Qcapture Suite software with a Qimaging Exi Blue camera attached to a Leica DMRBE microscope.

[4] = test system: Wnt/β-catenin signaling; assay: TOPFlash reporter assay in 293FT cells; type: cell-based, human; details: 1 μM 6BIO together with drug at indicated concentrations, 24 hours
Protocol: TOPFlash assay was performed in 96-well plate. For each well, 293T cells were transfected with 0.22 μg TOPFlash (or FOPFlash with mutant TCF binding sites) and 0.02 μg pRL-SV40P using lipofectamine 3000. For co-transfection with other plasmids, 0.1 μg additional DNA was used. […] The luciferase activity was measured 24 hours later by using Dual-Glo® Luciferase Assay System (Promega, E2940) according to the recommended protocol. The TOPFlash or FOPFlash activity was normalized to Renilla luciferase signals.
TOPFlash assay was performed as described above. Briefly, for each well of a 96-well plate 293FT cells were transfected with 0.22 μg TOPFlash (or FOPFlash with mutant TCF binding sites) and 0.02 μg pRL-SV40P using lipofectamine 3000. For co-transfection with other plasmids, 0.1 μg additional DNA was used. Four hours after transfection, 293FT cells were treated with DMSO, 1 μM 6B10 and 1 μM 6B10 together with pazopanib, orlistat and topotecan at varying concentrations for 24 hours. The luciferase activity was then measured using Dual-Glo® Luciferase Assay System (Promega, E2940) according to the recommended protocol. The TOPFlash or FOPFlash activity was normalized to Renilla luciferase signals.

[5] = test system: β-catenin; assay: Western blotting of β-catenin in SW480 cells; type: cell-based
Protocol: Culture cells were lysed in RIPA buffer (50 mM Tris-HCl, pH 7.4, 150 mM NaCl, 1% NP-40, 0.5% sodium deoxycholate, 0.1% SDS, 1 mM EDTA) containing freshly added protease inhibitors (Roche, 11836153001). Protein lysates were resolved in Novex 10% BisTris MiniGels (Life technologies, NP0303BOX) and transferred onto PVDF membranes with Pierce 1-Step Transfer Buffer (Thermo Fisher Scientific, 84731). Membranes were developed by using Pierce Fast Western Blot Kit with ECL Substrate (Thermo Fisher Scientific, 35050) and primary antibodies (β-catenin, ab16051, 1:2000 Abcam; GAPDH, ab181602, clone EPR16891, 1:20000, Abcam; hemagglutinin, ab9134, 1:2000, Abcam; FLAG, ab1162, 1:1000, Abcam; ubiquitin, ab7254, clone Ubi-1, 1:5000, Abcam; SHPRH, ab80129, 1:1000, Abcam; non-phospho-(active) β-catenin (Ser33/37/Thr41), 4270, 1:1000, Cell Signaling Technology; phospho-3-catenin (Ser33/37/Thr41), 9561, 1:1000, Cell Signaling Technology; β-catenin-Thr41/Ser45, 9565, 1:1000, Cell Signaling Technology; MED23, BD550429, clone D27-1805, 1:500, BD Biosciences). Proteins were visualized and captured by a ChemiDOC XRS system and Quantity One software (Bio-Rad Laboratories).

`CNC(=O)c1ccccc1Sc1ccc2c(/C=C/c3ccccn3)n[nH]c2c1` [axitinib, N-Methyl-2-[[3-[(E)-2-pyridin-2-ylethenyl]-1H-indazol-6-yl]sulfanyl]benzamide] was tested, and the “EdU ACD” value [1] was “increased significantly”, the “binding of the ligand to free GFP” value [2] was “did not show any binding” and the “cells with unequal distribution of nuclear β-catenin (β-catenin ACD)” value [3] was roughly 19%. For the same molecule, the “TOPFlash activity normalized to Renilla luciferase activity” value [4] was “dose dependently inhibits”, the “phosphorylated and non-phospho (active) β-catenin (ABC)” value ([5]; APC mutant SW480 cells, 24 hours) was “reduced” and the “β-catenin level (Western blots)” value ([5]; SW480, dose course 24 hours, time course at 5 μM) was “dose and time dependent decrease”.
